This passage reports EC50 and IC50 results from patent US8658638B2, “Mineralocorticoid receptor antagonist and methods of use” (priority 2009, dated 2014).

For this assay, the target named is T1, human androgen receptor (AR) (Homo sapiens, UniProt P10275).
T1 sequence (P10275 1-920): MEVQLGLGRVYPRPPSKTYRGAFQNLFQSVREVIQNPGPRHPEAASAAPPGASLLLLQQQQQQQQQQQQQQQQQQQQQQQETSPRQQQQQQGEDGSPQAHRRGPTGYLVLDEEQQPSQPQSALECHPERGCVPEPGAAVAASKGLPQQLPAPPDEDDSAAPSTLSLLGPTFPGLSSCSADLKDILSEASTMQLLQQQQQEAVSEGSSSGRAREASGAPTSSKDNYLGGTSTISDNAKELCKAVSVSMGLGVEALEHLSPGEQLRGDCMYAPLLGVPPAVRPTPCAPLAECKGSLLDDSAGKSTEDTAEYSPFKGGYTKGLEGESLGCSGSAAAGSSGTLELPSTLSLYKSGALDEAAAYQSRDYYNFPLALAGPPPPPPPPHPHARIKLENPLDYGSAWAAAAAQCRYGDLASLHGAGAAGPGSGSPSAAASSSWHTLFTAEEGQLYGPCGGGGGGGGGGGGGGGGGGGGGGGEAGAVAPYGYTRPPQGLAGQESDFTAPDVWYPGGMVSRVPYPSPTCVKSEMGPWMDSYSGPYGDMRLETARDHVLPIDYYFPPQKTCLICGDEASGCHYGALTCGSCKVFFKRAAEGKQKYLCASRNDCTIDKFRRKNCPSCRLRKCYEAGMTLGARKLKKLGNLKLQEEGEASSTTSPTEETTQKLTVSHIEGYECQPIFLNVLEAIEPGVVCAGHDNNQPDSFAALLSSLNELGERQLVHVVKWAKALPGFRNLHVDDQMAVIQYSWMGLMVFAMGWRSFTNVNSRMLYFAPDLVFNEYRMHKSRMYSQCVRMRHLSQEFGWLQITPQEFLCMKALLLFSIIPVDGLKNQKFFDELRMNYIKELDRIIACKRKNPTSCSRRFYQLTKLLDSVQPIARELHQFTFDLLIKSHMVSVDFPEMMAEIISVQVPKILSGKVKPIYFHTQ
As to the kind of experiment: Nuclear hormone receptor panel screen (luciferase reporter, HEK293), AR. The class given is cell-based. The source says:
Aldosterone exerts it physiological effects through interaction with the mineralocorticoid receptor. Following cytoplasmic binding of aldosterone to MR, the ligand receptor complex translocates to the cell nucleus where it binds to hormone response elements on DNA to initiate expression of target genes. […] The solvents, reagents, and ligands employed in the functional assay are readily available from commercial sources, or can be prepared by one of ordinary skill in the art.
Human embryonic kidney HEK293 cells are transfected with steroid hormone receptor and reporter gene plasmids using a suitable transfection reagent such as Fugene™. […] After 24 hours incubation with test compounds, cells are lysed and luciferase activity is determined using standard techniques.
Data are fitted to a four parameter-fit logistic curve to determine EC50 values. […] IC50 values are determined similarly using antagonist mode assay data. In the antagonist mode, percent inhibitions are determined by comparing test compound activity in the presence of low concentration of agonist (0.08 nM aldosterone for MR, 0.25 nM dexamethasone for GR, 0.66 nM of methyltrienolone for AR, and 0.08 nM of promegestone for PR) to the response produced by the same low concentration of agonist in the absence of test compound.

Some results are limits rather than exact numbers.

Regarding `O=c1[nH]c2cc(/C=C3\c4ccccc4COc4cc(F)ccc43)ccc2n1[C@@H]1C[C@@H]2COCCN2C1` [Compound (I), 5-((E)-(3-fluorodibenzo[b,e]oxepin-11(6H)-ylidene)methyl)-1-((7R,8aR)-hexahydro-1H-pyrrolo[2,1-c][1,4]oxazin-7-yl)-1H-benzo[d]imidazol-2(3H)-one], the EC50 (agonist mode) was > 10 µM. For the setting “antagonist mode, 0.66 nM methyltrienolone”, the IC50 was > 10 µM.

As a reminder, the EC50 is the concentration giving half of the maximal effect. Higher therefore signals lower potency in that assay. As a reminder, the IC50 is the midpoint of a concentration-inhibition curve. The low end stands for higher potency, the high end for lower potency.
